# Data taken from US7166621B2, “Pyridyloxyalkanoic acid amide derivatives useful as fungicides” (priority 2001, dated 2007).
# Key:
# [1] = test system: Plasmopara viticola; experiment: Leaf disk assay, downy mildew of grapevine, preventive fungicidal activity; format: in vivo; conditions: foliar, 168 h
# [2] = test system: Phytophthora infestans; experiment: whole plant or invertebrate; format: in vivo; conditions: in Solanum lycopersicum, foliar, 96 h, read-out: control of Phytophthora infestans
# [3] = grapevine leaf disks, preventive, assessed seven days after inoculation
Structure (SMILES),pest or weed control at 200 ppm [1] [%],"pest or weed control at 200 ppm [1, 3] [%]",pest or weed control at 200 ppm [2] [%],further results
"CC#CC(C)(C)NC(=O)C(COC)Oc1cncc(Cl)c1 (centres unmarked) [Compound No. 21 of Table 1, 2-(5-chloro-3-pyridyloxy)-N-(4-methylpent-2-yn-4-yl)-3-methoxypropionamide]",≥ 70,–,–,–
"CC#CC(C)(C)N(C)C(=O)C(CC)Oc1cncc(Cl)c1 (centres unmarked) [Compound No. 10 of Table 1, 2-(5-chloro-3-pyridyloxy)-N-methyl-N-(2-methylpent-3-yn-2-yl)butyramide]",–,≥ 70,–,–
"CCCC#CC(C)(C)NC(=O)C(CC)Oc1cncc(Cl)c1 (centres unmarked) [Compound No. 120 of Table 1, 2-(5-chloro-3-pyridyloxy)-N-(6-methylhept-4-yn-6-yl)butyramide]",–,≥ 70,–,melting point: 70 to 71 °C
"CCC#CC(C)(C)NC(=O)C(CC)Oc1cncc(Br)c1 (centres unmarked) [Compound No. 14 of Table 1, 2-(5-bromo-3-pyridyloxy)-N-(2-methylhex-3-yn-2-yl)butyramide]",–,≥ 70,–,–
"C=Cc1cncc(OC(CC)C(=O)NC(C)(C)C#CC)c1 (centres unmarked) [Compound No. 374 of Table 1, 2-(5-ethenyl-3-pyridyloxy)-N-(4-methylpent-2-yn-4-yl)butyramide]",–,–,≥ 70,–
"CC#CC(C)(CC)NC(=O)C(CC)Oc1cncc(Cl)c1 (centres unmarked) [Compound No. 136 of Table 1, 2-(5chloro-3-pyridyloxy)-N-(4methylhex-2-yn-4-yl)butyramide]",–,≥ 70,–,–
CCC#CC(C)(C)NC(=O)C(CC)Oc1cncc(C(=O)O)c1 (centres unmarked),–,–,–,melting point: 162 to 164 °C
"CC#CC(C)(C)NC(=O)C(CC)Oc1cncc(C(C)=O)c1 (centres unmarked) [Compound No. 326 of Table 1, 2-(5-acetyl-3-pyridyloxy)-N-(4-methylpent-2-yn-4-yl)butyramide]",–,–,≥ 70,–
"CCC(Oc1cncc(Cl)c1)C(=O)NC(C#CC(C)C)OC (centres unmarked) [Compound No. 49 of Table 1, 2-(5-chloro-3-pyridyloxy)-N-(1-methoxy-4-methylpent-2-ynyl)butyramide]",≥ 70,–,–,–
"CC#CC(C)(C)NC(=O)C(CC)Oc1cncc(Br)c1 (centres unmarked) [Compound No. 13 of Table 1, 2-(5-bromo-3-pyridyloxy)-N-(2-methylpent-3-yn-2-yl)butyramide]",–,≥ 70,–,–
"CC#CC(C)(C)NC(=O)C(CC)Oc1cnc(Cl)c(Cl)c1 (centres unmarked) [Compound No. 247 of Table 1, 2-(5,6-dichloro-3-pyridyloxy)-N-(4-methylpent-2-yn-4-yl)butyramide]",≥ 70,–,–,–
"CC#CC(C)(C)NC(=O)Cc1ccccc1Oc1cncc(Cl)c1 [Compound No. 11 of Table 1, 2-(5-chloro-3-pyridyloxy)-N-(2-methylpent-3-yn-2-yl)phenylacetamide]",–,–,≥ 70,–
"CC#CC(C)(C)NC(=O)C(CC)Oc1cncc(C#N)c1 (centres unmarked) [Compound No. 342 of Table 1, 2-(5-cyano-3-pyridyloxy)-N-(4-methylpent-2-yn-4-yl)butyramide]",≥ 70,–,≥ 70,–
"CCC#CC(C)(C)NC(=O)C(CC)Oc1cncc(C(=O)N(C(C)C)C(C)C)c1 (centres unmarked) [Compound No. 15 of Table 1, 2-(5-(N,N-diisopropylaminocarbonyl)-3-pyridyloxy)-N-(5-methylhex-3-yn-5-yl)butyramide]",–,≥ 70,≥ 70,–
"CCC#CC(C)(C)NC(=O)C(CC)Oc1cncc(Cl)c1 (centres unmarked) [Compound No. 1 of Table 1, 2-(5-chloro-3-pyridyloxy)N-(2-methylhex-3-yn-2-yl)butyramide]",–,≥ 70,–,–
"CC#CC(C)(C)NC(=O)C(CCC)Oc1cncc(Cl)c1 (centres unmarked) [Compound No. 3 of Table 1, 2-(5chloro-3-pyridyloxy)-N-(2-methylpent-3-yn-2-yl)valeramide]",–,≥ 70,≥ 70,–
"C=C(OCC)c1cncc(OC(CC)C(=O)NC(C)(C)C#CC)c1 (centres unmarked) [Compound No. 378 of Table 1, 2-[5-(1-ethoxyethen-1-yl)-3-pyridyloxy]-N-(4-methylpent-2-yn-4-yl)butyramide]",–,–,≥ 70,–
"CCC(Oc1cnc(Cl)c(Cl)c1)C(=O)NC(C)(C)C#CCOC (centres unmarked) [Compound No. 259 of Table 1, 2-(5,6-dichloro-3-pyridyloxy)-N-(1-methoxy-4-methylpent-2-yn-4-yl)butyramide]",≥ 70,–,–,–
"CC#CC(C)(C)NC(=O)C(CC)Oc1cncc(Br)c1 (single isomer, unassigned; (-)) [(−) isomer of Compound 13 of Table 1, (−) 2-(5-bromo-3-pyridyloxy)-N-(4-methylpent-2-yn-4-yl)butyramide]",–,–,≥ 70,–
"CC#CC(C)(C)NC(=O)C(CC)Oc1cncc(Oc2ccccc2)c1SC (centres unmarked) [Compound No. 263 of Table 1, 2-(4-methylthio-5-phenoxy-3-pyridyloxy)-N-(4-methylpent-2-yn-4-yl)butyramide]",≥ 70,–,≥ 70,–
"C#Cc1cncc(OC(CC)C(=O)NC(C)(C)C#CC)c1 (centres unmarked) [Compound No. 358 of Table 1, 2-(5-ethynyl-3-pyridyloxy)-N-(4-methylpent-2-yn-4-yl)butyramide]",≥ 70,–,–,–
"CCCC#CC(C)(C)NC(=O)C(CC)Oc1cncc(Br)c1 (centres unmarked) [Compound No. 128 of Table 1, 2-(5-bromo-3-pyridyloxy)-N-(6-methylhept4-yn-6-yl)butyramide]",–,≥ 70,≥ 70,–
"CC#CC(C)(C)NC(=O)C(CC)Oc1cncc(Cl)c1 (centres unmarked) [Compound No. 8 of Table 1, 2-(5-chloro-3-pyridyloxy)-N-(2-methylpent-3-yn-2-yl)butyramide]",–,≥ 70,–,–
